Where a name gives a salt, the structure may show the parent alone. Read-outs that look alike come from different tables or passages of the source.
Assays:
[1] = system: mouse ascites L1210 leukaemia cells; assay: Levels of putrescine, spermidine and spermine (polyamine pools) in mouse ascites L1210 leukemia cells (method of Porter et al., HPLC); assay type: cell-based; conditions: 48 h incubation; for activity at 10 µM: test compound 10 μM; for activity at 5 µM: test compound 5 μM
Procedure: Mouse ascites L1210 leukaemia cells are cultured (at 37° C.) in RPMI-1640 medium (which contains, per litre, 100 mg of Ca(NO3)2,400 mg of KCl, 100 mg of MgSO4.7H2 O, 6000 mg of NaCl, 2000 mg of NaHCO3, 801 mg of Na2 HPO4, 242 mg of L-Arg.HCl, 50 mg of L-Ash, 20 mg of L-Asp, 50 mg of L-Cys, 300 mg of L-Gln, 20 mg of L-Glu, 10 mg of Gly, 18.2 mg of L-His.HCl.H2 O, 20 mg of L-hydroxyproline, 50 mg of L-Leu, 40 mg of L-Lys.HCl, 15 mg of L-Met, 15 mg of L-Phe, 20 mg of L-Pro, 30 mg of L-Ser, 20 mg of L-Thr, 5 mg of L-Trp, 20 mg of L-Tyr, 20 mg of L-Vat, 1 mg of […], 0.2 mg of biotin, 3 mg of choline chloride, 1 mg of folic acid, 35 mg of i-inositol, 1 mg of nicotinamide, 0.25 mg of pantothenoic acid calcium salt, 1 mg of pyridoxine.HCl, 0.2 mg of riboflavin, 1 mg of thiamine. HCl, 0.005 mg of vitamin B12, 2000 mg of glucose, 1 mg of glutathione, and 5 mg of phenol red), which also contains 2 % 4-(2-hydroxyethyl)-1-piperazineethanesulfonic acid/3-(N-morpholino)propanesulfonic acid, 1 mM aminoguanidine and 10% NuSerum (Collaborative Research Inc., Lexington, Mass.). The cells are cultured under a humid 5% carbon dioxide atmosphere at 37° C. either in glass culture tubes (2 ml) or in 25 or 75 cm^2 tissue culture bottles in a total volume of 15 or 50 ml, respectively. The cultures are treated with the compounds of formula I or with 0.1 mM spermidine (controls: without corresponding compounds) during the logarithmic growth phase (0.5 to 1×10^5 cells/ml). The number of cells is measured by electronic particle counting (Model ZF Coulter Counter, Coulter Electronics, Hialeah, Fla.) and confirmed from time to time by haemocytometer measurements. The viability of the cells is measured by trypan blue exclusion measurement (0.5% in unbuffered 0.9% sodium chloride solution ).
For polyamine determination, the cell samples are washed twice in cold PBS (="Phosphate Buffered Saline"--contains per litre 8000 mg of NaCl, 200 mg of KCl, 1150 mg of Na2 HPO4.2H2 O, 200 mg of KH2 PO4, 100 mg of MgCl2.H2 O, 200 mg of MgSO4.H2 O and CaCl2; pH 7.2), and an aliquot of 10^7 cells is removed for polyamine determination. The cells are formed into a pellet, and the PBS supernatant is removed carefully using a cotton wool swab. The pellet containing the cells is then maintained together with 0.5 ml of 0.6M perchloric acid for 30 minutes at 4° C. and is then centrifuged for 3 minutes at 12,000 g using a microcentrifuge. The supernatant is frozen at -20° C. until the HPLC analysis. For that purpose, the polyamines in a 50 μl sample of the perchloric acid extract are separated over an HPLC system using a glass "Microbore Column" having a diameter of 2.8 mm, which is packed to a height of 2 cm with TLC-4A-cationexchange resin (Durrum Chemical Corp., Palo Alto, Calif.). The column temperature is maintained at 65° C. by means of a water bath with circulating water. The column is eluted at a flow rate of 16 ml/h with an initial column pressure of 34.45 bar, which decreases as the ionic strength of the elution buffer increases. Buffer 1 (which contains 0.2M boric acid, 0.5M NaCl, 0.03% Brij 35 (polyoxyethylene monolauryl ether, the number of ethyleneoxy radicals is approximately 23; Pierce Chemical Co., Rockford, Ill.) and 0.0001% octanoic acid, pH adjusted to 6.0 with saturated KOH) is flushed through the column for 4 minutes. Buffer 2 (which contains 0.2M boric acid, 2.15M NaCl, 0.03% Brij 35 and 0.0001% octanoic acid, pH adjusted as above) is pumped through for 6 minutes. Buffer 3 (which contains 0.2M boric acid, 2.9M NaCl and 0.0001% octanoic acid (pH adjusted as above)) is likewise applied for 6 minutes. The column is re-equilibrated for 10 minutes with buffer 1, before the next sample is introduced. The column eluate is derivatised with 0.05% o-phthalaldehyde (Durrum Chemical Corp.) in 0.4M borate buffer (pH 10.4)/1 mM 2-mercaptoethanol/0.09% Brij 35. The flow rate for o-phthalaldehyde is 8 ml/h. […]

[2] = system: human T24 bladder carcinoma cells; assay: Inhibition of growth of human T24 bladder carcinoma cells (methylene blue staining, 5 days); assay type: cell-based; conditions: 120 h, Eagle's minimal essential medium, 5 days incubation
Procedure: The carcinoma cells (1000-1500) are transferred to 96-well microlitre plates and are incubated overnight under the said conditions. The test compound is added in serial dilutions on day 1. The plates are incubated under the said conditions for 5 days. During that period, control cultures undergo at least 4 cell divisions. After incubation, the cells are fixed with 3.3% (weight/volume=w/v) aqueous glutaraldehyde solution, washed with water and stained with 0.05% (w/v) aqueous methylene blue solution. After washing, the dye is eluted with 3% (w/v) aqueous hydrochloric acid. The optical density (OD) per well, which is directly proportional to the number of cells, is then measured by means of a photometer (Titertek multiskan) at 665 nm. The IC50 values are calculated by means of a computer system using the formula [formula] The IC50 value is defined as the concentration of active ingredient at which the number of cells per well at the end of the incubation period is only 50% of the number of cells in the control cultures. Inhibition of growth of human T24 bladder carcinoma cells: Using the method for inhibition of growth of human T24 bladder carcinoma cells om Eagle's minimal essential medium (see above), the following test results are obtained (given as IC50 =concentration of the active ingredient at which the number of cells per well at the end of the incubation period is only 50% of the number of cells in the control cultures): […]

[3] = read-out: level of putrescine (PU), % of the respective control
[4] = read-out: level of spermidine (SPD), % of the respective control
[5] = read-out: level of spermine (SPM), % of the respective control

Row | SMILES | activity at 10 µM [1, 3] | activity at 10 µM [1, 4] | activity at 10 µM [1, 5] | IC50 [2] | activity at 5 µM [1, 3] | activity at 5 µM [1, 4] | activity at 5 µM [1, 5]
1 | CCCNCCCNC/C=C/CNCCCNCCC [Example 1, (E)-1,14Di-propyl-1,5,10,14-tetraazatetradec-7-ene tetrahydrochloride] | 9.4% | 12% | 67% | 0.64 µM | – | – | –
2 | C=CCNCCCNC/C=C/CNCCCNCC=C [Example 2, (E)-1,14-Di-allyl-1,5,10,14-tetraazatetradec-7-ene tetrahydrochloride] | 16% | 3.1% | 36% | 0.6 µM | – | – | –
3 | CCCCNCCCNC/C=C/CNCCCNCCCC [Example 3, (E)-1,14-Di-butyl-1,5,10,14-tetraazatetradec-7-ene tetrahydrochloride] | – | – | – | 8.2 µM | – | – | –
4 | CCNCCCNC/C=C/CNCCCNCC [Example 5, (E)-1,14-Di-ethyl-1,5,10,14-tetraazatetradec-7-ene tetrahydrochloride] | – | – | – | – | 4.1% | 2.1% | 30%
5 | C=CCNCCCNC/C=C/CNCCCNCC [Example 6, (E)-1-Ally-14-ethyl-1,5,10,14-tetraazatetradec-7-ene tetrahydrochloride] | 4.1% | 2.1% | 12% | 3 µM | – | – | –
6 | CCCCNCCCNC/C=C/CNCCCNCC [Example 8, (E)-1-Butyl-14-ethyl-1,5,10,14-tetraazatetradec-7-ene tetrahydrochloride] | 4.8% | 0.2% | 4% | 0.55 µM | – | – | –
7 | CCCNCCCNC/C=C/CNCCCNCC [Example 9, (E)-1-Ethyl-14-propyl-1,5,10,14-tetraazatetradec-7-ene tetrahydrochloride] | 6.9% | 2% | 19% | 1.1 µM | – | – | –
8 | C=CCNCCCNC/C=C/CNCCCNCCC [Example 13, (E)-1-Allyl-14-propyl-1,5,10,14-tetraazatetradec-7-ene tetrahydrochloride] | 0% | 1.3% | 25% | 2.14 µM | – | – | –
9 | C(=C\CNCCCNCC1CC1)/CNCCCNCC1CC1 [Example 16, (E)-1,14-Di-cyclopropylmethyl-1,5,10,14-tetraazatetradec-7-ene tetrahydrochloride] | 12% | 24% | 62% | 0.92 µM | – | – | –
